Active and inactive are the calls of the source.
Legend:
[1] = cytotoxicity in OVCAR8 ovarian cancer cells, dose response, PAX8 project, cell-based, plate reader, dry powder samples (AID 743197); type: functional; conditions: OVCAR-8
[2] = biological target: Paired box protein Pax-8 (Homo sapiens, UniProt Q06710); assay: inhibitors of PAX8-driven TPO luciferase reporter, dose response, RMG-I cells, cherry-pick (AID 687027); type: functional, cell-based;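 also: luciferase reporter driven by Pax8 target thyroperoxidase promoter measured by SteadyGlo luminescence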
[3] = A Cell Based Secondary Assay To Explore Cytotoxicity of Compounds that Sensitize Mycobacterium Tuberculosis to Beta-Lactam Antibiotics.; type: functional
[4] = biological target: Large T antigen (Simian virus 40, UniProt P03070); type: functional, Betapolyomavirus macacae;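 also: Confirmatory-stage PubChem screen for compounds that inhibit SV40 T antigen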
[5] = system: Escherichia coli; assay: microbe, parasite or virus in culture
[6] = biological target: Estrogen receptor beta (Homo sapiens, UniProt Q92731);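 also: recombinant ER-beta bound to coactivator SRC1 peptide in presence of estradiol agonist; inhibitors block coactivator peptide binding and lower the FRET signal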
[7] = cells; type: functional, cell-based
[8] = cells; type: functional, cell-based; remark: listed apart in the source
[9] = cytotoxicity in KRAS-transformed pancreatic duct cells, primary screen, cell-based, fluorescence, HTS (AID 431); type: functional; conditions: Homo sapiens;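 also: cell line used: HPDE-C7K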
[10] = cytotoxicity in HPDE-C7 cells, cell-based, fluorescence, HTS (AID 430); type: functional; conditions: Homo sapiens
[11] = biological target: FAD-linked sulfhydryl oxidase ALR (Homo sapiens, UniProt P55789); assay: inhibitors of human ALR sulfhydryl oxidase, dose response, biochemical, H2O2 detection, luminescence, cherry-pick (AID 493248)
[12] = biological target: T1, Cytochrome P450 1A2 (Homo sapiens, UniProt P05177);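 also: PubChem cytochrome P450 panel assay, CYP1A2 panel member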
T1 sequence (P05177 whole entry): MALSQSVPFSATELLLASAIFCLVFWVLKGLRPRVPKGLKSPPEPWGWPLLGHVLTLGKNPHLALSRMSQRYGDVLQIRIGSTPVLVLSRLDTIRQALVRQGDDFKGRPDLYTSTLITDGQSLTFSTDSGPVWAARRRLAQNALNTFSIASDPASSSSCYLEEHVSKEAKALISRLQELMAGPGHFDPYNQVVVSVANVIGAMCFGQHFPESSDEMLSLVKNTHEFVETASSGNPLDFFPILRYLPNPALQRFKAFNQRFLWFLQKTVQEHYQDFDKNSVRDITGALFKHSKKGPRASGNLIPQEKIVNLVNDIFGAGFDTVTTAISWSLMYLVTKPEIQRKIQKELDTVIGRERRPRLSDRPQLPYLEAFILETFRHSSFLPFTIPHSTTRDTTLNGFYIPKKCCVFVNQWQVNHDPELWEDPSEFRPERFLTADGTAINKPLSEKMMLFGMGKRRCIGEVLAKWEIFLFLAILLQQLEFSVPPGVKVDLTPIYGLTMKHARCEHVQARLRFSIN

[13] = biological target: Cytochrome P450 2D6 (Homo sapiens, UniProt P10635);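 also: CYP2D6 member of a cytochrome P450 panel assay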
[14] = biological target: T2, fMet-Leu-Phe receptor (Homo sapiens, UniProt P21462); assay: FPR ligands, dose response (AID 519); type: functional
T2 sequence (P21462 whole entry): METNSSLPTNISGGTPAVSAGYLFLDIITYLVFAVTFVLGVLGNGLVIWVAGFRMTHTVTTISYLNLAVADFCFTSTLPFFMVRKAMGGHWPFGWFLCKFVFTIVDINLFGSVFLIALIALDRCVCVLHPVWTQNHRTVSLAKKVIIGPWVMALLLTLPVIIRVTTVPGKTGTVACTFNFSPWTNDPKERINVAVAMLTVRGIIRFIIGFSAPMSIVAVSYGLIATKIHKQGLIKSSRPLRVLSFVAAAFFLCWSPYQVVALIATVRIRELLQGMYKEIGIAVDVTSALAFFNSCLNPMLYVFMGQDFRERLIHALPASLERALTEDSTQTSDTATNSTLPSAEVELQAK

[15] = biological target: Cytochrome P450 2C9 (Homo sapiens, UniProt P11712)
[16] = biological target: Cytochrome P450 2C19 (Homo sapiens, UniProt P33261); assay: Cytochrome panel assay with activity outcomes. Panel member name: p450-cyp2c19 Compounds with AC50 equal or less than 10 uM are considered active; type: functional; conditions: read-out: AC50
[17] = biological target: T3, Replicative DNA helicase DnaB (Mycobacterium tuberculosis, UniProt P9WMR3); assay: DnaB intein splicing inhibitors, dose response, biochemical, cell-free fluorescence (AID 449749); type: functional
T3 sequence (P9WMR3 whole entry): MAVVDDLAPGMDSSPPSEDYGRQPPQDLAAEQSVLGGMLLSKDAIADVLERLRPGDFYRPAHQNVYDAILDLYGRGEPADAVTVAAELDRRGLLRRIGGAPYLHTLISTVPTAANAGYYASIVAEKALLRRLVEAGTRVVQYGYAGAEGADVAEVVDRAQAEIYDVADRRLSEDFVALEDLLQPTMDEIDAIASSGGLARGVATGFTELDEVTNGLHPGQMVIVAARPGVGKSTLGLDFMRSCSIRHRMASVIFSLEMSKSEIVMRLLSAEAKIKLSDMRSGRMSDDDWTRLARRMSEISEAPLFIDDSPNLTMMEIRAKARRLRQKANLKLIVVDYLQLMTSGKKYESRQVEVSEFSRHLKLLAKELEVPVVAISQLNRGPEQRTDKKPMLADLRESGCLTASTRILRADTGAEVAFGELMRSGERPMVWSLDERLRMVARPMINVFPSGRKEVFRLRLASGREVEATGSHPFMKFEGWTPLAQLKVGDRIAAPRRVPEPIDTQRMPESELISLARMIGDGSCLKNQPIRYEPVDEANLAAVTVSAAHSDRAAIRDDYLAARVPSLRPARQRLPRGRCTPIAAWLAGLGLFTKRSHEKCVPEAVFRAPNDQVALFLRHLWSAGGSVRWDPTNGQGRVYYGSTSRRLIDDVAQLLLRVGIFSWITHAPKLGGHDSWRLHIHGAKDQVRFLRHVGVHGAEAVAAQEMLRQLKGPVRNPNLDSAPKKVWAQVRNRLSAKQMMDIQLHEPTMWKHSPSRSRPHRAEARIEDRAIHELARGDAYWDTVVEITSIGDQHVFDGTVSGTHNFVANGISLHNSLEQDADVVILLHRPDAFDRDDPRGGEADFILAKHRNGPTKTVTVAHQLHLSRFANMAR

[18] = biological target: T4, Protein RecA (Mycobacterium tuberculosis, UniProt P9WHJ3); assay: Fluorescence Cell-Free Homogeneous Dose Retest to Identify Inhibitors of RecA-Intein Splicing Activity. [Related pubchem assays (depositor defined):AID2097, AID2223, AID489010, AID492950]; type: functional
T4 sequence (P9WHJ3 whole entry): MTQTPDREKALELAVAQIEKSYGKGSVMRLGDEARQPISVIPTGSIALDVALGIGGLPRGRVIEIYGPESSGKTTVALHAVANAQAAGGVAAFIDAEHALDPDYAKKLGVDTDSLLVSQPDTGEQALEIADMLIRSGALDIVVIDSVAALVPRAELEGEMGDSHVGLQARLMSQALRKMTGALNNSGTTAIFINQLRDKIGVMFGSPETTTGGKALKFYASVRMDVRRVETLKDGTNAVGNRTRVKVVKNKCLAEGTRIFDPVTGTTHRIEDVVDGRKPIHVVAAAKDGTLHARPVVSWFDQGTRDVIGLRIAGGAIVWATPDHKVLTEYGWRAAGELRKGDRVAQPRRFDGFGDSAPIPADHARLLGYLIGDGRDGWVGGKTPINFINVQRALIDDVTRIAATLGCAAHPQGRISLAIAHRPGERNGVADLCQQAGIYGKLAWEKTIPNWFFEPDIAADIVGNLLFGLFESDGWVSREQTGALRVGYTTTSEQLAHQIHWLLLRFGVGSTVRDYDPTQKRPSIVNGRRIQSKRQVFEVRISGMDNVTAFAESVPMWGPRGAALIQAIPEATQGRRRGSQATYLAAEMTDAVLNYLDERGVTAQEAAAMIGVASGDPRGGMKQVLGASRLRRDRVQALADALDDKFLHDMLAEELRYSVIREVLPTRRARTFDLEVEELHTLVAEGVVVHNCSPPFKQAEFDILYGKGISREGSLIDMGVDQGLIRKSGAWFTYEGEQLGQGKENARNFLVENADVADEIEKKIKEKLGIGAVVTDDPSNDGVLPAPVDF

[19] = biological target: Eukaryotic translation initiation factor 4E (Mus musculus, UniProt P63073); assay: eIF4E–eIF4G protein interaction inhibitors, dose response, biochemical, TR-FRET (AID 855); type: functional;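 also: potency for disrupting eIF4E binding to eIF4GI seen as loss of FRET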
[20] = system: Escherichia coli; assay: microbe, parasite or virus in culture; remark: listed apart in the source
[21] = biological target: T5, Rac GTPase-activating protein 1 (Homo sapiens, UniProt Q9H0H5); assay: MgcRacGAP GTPase-activating activity inhibitors, confirmation, biochemical, ADP Hunter fluorescence, primary and confirmatory (AID 624330); type: functional
T5 sequence (Q9H0H5 whole entry): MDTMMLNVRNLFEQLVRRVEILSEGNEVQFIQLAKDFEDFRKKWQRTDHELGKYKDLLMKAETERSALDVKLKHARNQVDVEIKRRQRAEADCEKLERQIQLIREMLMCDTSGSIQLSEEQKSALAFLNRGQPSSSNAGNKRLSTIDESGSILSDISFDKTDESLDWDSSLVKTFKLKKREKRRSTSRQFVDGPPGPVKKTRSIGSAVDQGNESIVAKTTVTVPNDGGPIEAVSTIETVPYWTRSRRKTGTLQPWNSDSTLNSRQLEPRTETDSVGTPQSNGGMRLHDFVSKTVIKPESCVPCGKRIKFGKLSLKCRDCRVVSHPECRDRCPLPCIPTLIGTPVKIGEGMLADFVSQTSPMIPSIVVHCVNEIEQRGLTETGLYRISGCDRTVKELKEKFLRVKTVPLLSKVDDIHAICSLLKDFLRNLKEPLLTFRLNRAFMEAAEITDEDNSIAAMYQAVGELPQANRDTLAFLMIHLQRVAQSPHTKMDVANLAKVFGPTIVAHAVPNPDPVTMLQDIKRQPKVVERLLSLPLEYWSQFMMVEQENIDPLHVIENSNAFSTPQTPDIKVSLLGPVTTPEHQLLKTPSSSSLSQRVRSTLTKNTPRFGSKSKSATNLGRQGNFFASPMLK

Sequence of Large T antigen (P03070 whole entry): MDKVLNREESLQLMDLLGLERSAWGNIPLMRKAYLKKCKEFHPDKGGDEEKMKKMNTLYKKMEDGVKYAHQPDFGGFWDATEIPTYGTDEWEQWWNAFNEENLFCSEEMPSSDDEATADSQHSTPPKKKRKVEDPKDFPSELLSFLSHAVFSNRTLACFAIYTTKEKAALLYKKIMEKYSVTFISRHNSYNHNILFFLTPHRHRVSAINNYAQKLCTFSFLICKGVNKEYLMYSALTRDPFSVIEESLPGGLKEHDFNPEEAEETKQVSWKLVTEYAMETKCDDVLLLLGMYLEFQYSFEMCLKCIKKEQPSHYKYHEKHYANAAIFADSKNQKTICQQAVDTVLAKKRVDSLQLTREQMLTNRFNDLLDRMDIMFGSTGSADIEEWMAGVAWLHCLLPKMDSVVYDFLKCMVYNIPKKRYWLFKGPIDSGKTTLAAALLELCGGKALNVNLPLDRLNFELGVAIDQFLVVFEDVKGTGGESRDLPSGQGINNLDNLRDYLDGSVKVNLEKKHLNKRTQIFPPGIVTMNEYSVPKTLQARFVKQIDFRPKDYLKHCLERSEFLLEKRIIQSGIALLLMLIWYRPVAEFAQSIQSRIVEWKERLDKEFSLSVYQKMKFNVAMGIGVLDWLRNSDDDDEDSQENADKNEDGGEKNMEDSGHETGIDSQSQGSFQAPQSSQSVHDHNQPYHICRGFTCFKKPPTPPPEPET
Sequence of Paired box protein Pax-8 (Q06710 whole entry): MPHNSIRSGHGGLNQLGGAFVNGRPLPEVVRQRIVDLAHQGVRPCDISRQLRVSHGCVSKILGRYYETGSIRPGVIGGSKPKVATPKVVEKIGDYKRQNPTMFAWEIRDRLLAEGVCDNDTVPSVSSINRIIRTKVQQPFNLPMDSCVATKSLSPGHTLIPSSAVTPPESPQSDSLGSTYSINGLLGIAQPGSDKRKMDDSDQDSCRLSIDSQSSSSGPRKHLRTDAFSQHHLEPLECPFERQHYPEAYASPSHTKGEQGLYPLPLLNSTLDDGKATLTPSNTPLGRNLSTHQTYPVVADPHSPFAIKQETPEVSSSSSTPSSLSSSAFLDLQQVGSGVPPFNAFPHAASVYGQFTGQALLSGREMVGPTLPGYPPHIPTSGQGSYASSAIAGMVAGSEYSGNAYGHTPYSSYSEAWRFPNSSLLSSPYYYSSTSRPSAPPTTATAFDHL
Sequence of Estrogen receptor beta (Q92731 whole entry): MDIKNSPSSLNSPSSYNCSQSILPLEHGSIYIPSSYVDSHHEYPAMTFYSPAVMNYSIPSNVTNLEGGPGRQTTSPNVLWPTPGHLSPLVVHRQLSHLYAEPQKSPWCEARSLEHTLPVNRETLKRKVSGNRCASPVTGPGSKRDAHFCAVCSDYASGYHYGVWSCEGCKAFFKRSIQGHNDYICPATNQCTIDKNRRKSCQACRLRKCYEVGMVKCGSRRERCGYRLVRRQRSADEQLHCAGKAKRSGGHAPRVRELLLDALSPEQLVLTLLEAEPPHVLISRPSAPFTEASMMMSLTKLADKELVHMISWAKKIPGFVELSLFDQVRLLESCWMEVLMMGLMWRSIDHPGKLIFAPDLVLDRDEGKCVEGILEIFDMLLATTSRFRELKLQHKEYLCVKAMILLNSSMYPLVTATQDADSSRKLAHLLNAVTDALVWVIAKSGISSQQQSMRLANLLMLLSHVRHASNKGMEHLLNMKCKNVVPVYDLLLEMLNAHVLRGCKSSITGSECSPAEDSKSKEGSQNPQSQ
Sequence of Eukaryotic translation initiation factor 4E (P63073 whole entry): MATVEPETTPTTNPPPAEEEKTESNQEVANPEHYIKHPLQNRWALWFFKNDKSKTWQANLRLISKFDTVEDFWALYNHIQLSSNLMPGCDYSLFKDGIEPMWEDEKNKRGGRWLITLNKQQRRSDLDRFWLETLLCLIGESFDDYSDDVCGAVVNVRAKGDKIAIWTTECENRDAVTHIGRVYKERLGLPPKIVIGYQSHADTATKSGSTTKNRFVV
Sequence of Cytochrome P450 2C9 (P11712 whole entry): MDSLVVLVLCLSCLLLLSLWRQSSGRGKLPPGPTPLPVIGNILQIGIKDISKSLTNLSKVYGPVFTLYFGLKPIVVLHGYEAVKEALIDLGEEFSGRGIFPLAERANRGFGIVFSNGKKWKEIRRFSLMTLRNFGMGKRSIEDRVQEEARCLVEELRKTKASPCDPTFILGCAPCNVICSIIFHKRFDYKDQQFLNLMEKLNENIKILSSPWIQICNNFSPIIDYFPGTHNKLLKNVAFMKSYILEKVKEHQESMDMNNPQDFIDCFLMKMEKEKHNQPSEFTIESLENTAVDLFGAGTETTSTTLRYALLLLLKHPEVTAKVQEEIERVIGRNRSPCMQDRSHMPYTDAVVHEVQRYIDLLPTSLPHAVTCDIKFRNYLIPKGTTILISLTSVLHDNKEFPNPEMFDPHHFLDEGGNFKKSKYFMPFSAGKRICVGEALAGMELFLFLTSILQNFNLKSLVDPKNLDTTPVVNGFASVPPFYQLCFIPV
Sequence of Cytochrome P450 2D6 (P10635 whole entry): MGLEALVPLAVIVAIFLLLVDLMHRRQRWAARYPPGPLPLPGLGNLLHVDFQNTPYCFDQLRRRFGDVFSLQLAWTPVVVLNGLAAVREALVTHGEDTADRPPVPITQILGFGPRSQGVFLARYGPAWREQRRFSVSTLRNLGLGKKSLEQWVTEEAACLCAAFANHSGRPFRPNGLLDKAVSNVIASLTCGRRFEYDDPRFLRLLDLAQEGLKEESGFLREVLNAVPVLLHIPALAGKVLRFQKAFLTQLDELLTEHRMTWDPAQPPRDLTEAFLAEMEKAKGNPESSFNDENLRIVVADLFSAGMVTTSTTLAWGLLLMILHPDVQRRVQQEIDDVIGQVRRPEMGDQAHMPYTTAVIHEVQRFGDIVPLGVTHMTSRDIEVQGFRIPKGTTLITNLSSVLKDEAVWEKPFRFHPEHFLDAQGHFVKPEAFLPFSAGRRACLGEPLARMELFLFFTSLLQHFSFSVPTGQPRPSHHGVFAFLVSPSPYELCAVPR
Sequence of FAD-linked sulfhydryl oxidase ALR (P55789 whole entry): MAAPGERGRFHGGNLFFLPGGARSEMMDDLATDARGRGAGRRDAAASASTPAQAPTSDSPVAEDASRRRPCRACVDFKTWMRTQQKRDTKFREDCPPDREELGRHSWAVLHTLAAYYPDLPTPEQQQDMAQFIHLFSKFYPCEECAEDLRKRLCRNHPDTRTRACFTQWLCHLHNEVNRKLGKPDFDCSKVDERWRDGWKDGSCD
Sequence of Cytochrome P450 2C19 (P33261 whole entry): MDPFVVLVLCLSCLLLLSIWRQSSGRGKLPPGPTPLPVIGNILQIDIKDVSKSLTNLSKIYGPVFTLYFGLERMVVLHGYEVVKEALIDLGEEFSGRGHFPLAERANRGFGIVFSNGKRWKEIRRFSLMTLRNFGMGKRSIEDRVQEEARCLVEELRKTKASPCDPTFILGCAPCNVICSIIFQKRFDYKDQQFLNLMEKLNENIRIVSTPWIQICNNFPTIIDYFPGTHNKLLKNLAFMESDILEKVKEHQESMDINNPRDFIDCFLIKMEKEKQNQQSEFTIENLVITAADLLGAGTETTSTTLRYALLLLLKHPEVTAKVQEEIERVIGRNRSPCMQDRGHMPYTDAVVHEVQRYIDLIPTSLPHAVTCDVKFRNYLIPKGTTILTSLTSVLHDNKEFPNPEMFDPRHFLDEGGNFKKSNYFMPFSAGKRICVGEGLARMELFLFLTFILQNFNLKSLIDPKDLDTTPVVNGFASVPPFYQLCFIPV

COc1ccc(CN(C)C[C@@H]2OCCCC[C@@H](C)Oc3ccc(NC(=O)Nc4ccc(C(F)(F)F)cc4)cc3C(=O)N([C@@H](C)CO)C[C@H]2C)cc1
AC50 [1]: > 70 µM (inactive) | AC50 [2]: 8.11 µM (active)

Clc1ccc(-c2csc3ncnc(N4CCc5ccccc5C4)c23)cc1
CC50 [3]: > 40 µM (active)

CC(C)c1ccc(S(=O)(=O)N2CCN(CCC(=O)Nc3ccc(N(C)C)cc3)CC2)cc1
IC50 [4]: 15.1 µM (active)

CCC(C)N1CCC2(CC1)N=c1c3c(O)c4c(O)c(C)c5c(c4c1=N2)C(=O)[C@@](C)(OC=C[C@H](OC)[C@@H](C)[C@@H](OC(C)=O)[C@H](C)[C@H](O)[C@H](C)[C@@H](O)[C@@H](C)C=CC=C(C)C(=O)N3)O5 (stereo partly drawn)
AC50 [5]: 7.88 µM (active)

CCN(CC)C1=CC(=O)OC12CCCCC2
IC50 [6]: > 50 µM (not active)

CCOC(=O)c1sc(N(Cc2ccccc2)C(=O)COC(=O)c2ccc(O)cc2)nc1C
EC50 [7]: 175 µM (active) | EC50 [8]: > 350 µM (not active)

COc1ccccc1NC(=O)c1cc2ccccc2o/c1=N\O
EC50 [9]: > 20 µM (not active) | EC50 [10]: > 20 µM (not active)

Cc1cc(=O)oc2c(N)c(O)ccc12
IC50 [4]: 0.77 µM (active) | AC50 [11]: 1.32 µM (active)

Cc1ccc(Cn2c(C(CO)Nc3nc(-c4ccc(Cl)c([N+](=O)[O-])c4)cs3)nc3ccccc32)cc1 (stereo not drawn)
CC50 [3]: 37.3 µM (active)

COc1ccccc1CNC(=O)c1cc2c(C)nn(Cc3ccc(F)cc3)c2s1
AC50 [12]: 31.6 µM (inconclusive) | AC50 [13]: 22.4 µM (inconclusive) | CC50 [3]: > 40 µM (active)

COc1ccc(OC)c(C(=O)c2nc3c(n2O)CCCCC3)c1
Ki [14]: 49.6 µM (inactive)

Cc1ccc(/C=N\NC(=O)COc2ccc(C)cc2[N+](=O)[O-])cc1
IC50 [4]: > 100 µM (active)

O=C(Nc1ccc(CN2CCOCC2)cc1)c1ccc(-c2ccc(Br)cc2)o1
EC50 [9]: 9.91 µM (active) | EC50 [10]: 13.9 µM (active)

CC(C)(C)c1nnc(NC(=O)NS(=O)(=O)c2ccccc2)s1
AC50 [15]: 10 µM (inconclusive) | AC50 [5]: 61.5 µM (active) | AC50 [16]: 39.8 µM (inconclusive)

Cc1cccn2c(=O)c3cc(C(=O)N4CCC5(CC4)OCCO5)n(C)c3nc12
EC50 [9]: 8.42 µM (active) | EC50 [10]: 4.7 µM (active)

O=C1CCCC(O)=C1C(C#Cc1ccccc1)C1=C(O)CCCC1=O
Ki [14]: > 66.7 µM (inactive) | AC50 [17]: 6.78 µM (active) | EC50 [18]: > 380 µM (inconclusive) | IC50 [19]: > 64 µM (inactive)

O=C(NC1CC1)C1CCN(C2CCN(C(=O)Cc3ccc(F)cc3)CC2)CC1
AC50 [20]: 26.8 µM (active) | AC50 [5]: 50 µM (active)

COc1ccccc1/C=C/C(=O)NCC(=O)N/N=C/c1cc(Br)ccc1OC
CC50 [3]: 27.5 µM (active)

O=C(c1ccccc1)N1CCN(c2ccc([N+](=O)[O-])c(NCC3CCCO3)c2)CC1 (stereo not drawn)
AC50 [20]: 105 µM (active) | AC50 [5]: 40.2 µM (active)

O=C(C1=C(O)C(=O)N(CCN2CCOCC2)C1c1ccccc1)c1cccs1 (stereo not drawn)
Ki [14]: > 66.7 µM (inactive)

COc1cc(/C=N/NC(=S)NCCN2CCOCC2)ccc1O
IC50 [4]: 6.95 µM (active) | IC50 [21]: 19.9 µM (active)

O=C1C(C23CC4CC(CC(C4)C2)C3)C(=O)N(c2ccccc2)N1c1ccccc1
Ki [14]: 11.5 µM (active)

O=C1CC(c2ccc(S(=O)(=O)NCCOc3ccccc3)cc2)CN1 (stereo not drawn)
IC50 [6]: > 50 µM (not active)

CCOc1ccc2nc(N3CCC(C(=O)NC4CCCCC4)CC3)sc2c1
CC50 [3]: > 40 µM (active)

O=S(=O)(c1ccccc1)N1CCCCN2[C@H](CO)[C@H](c3ccc(-c4ccccc4F)cc3)[C@H]2C1
AC50 [1]: > 70 µM (inactive) | AC50 [2]: 33.7 µM (active)

O=C(Cn1c(=O)oc2ccccc21)N1CCN(c2ccccc2)CC1
Ki [14]: > 66.7 µM (inactive)
